The test has as its target T1, avidin (unmodified, native) (Gallus gallus, UniProt P02701).
T1 construct: gene AVD; natural secreted glycoprotein from egg white (mature chain, signal peptide removed), commercial lyophilised (Merck), untagged; homotetramer, one ligand site per monomer
The experiment in a line: UV-Vis titration at […] nm, non-linear regression (Hill-Langmuir). The note with it: read-out: Unmodified avidin / K d (×10^-5 mol dm^-3). In kind it is binding.

We go through one molecule from publication PMC8178808, “Exploring conformational preferences of proteins: ionic liquid effects on the energy landscape of avidin” (Chemical Science, 2020).

T1 sequence (P02701 25-152): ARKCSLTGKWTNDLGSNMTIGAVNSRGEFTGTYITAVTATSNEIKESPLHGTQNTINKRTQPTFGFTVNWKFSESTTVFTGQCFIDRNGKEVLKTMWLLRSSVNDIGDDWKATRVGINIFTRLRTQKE

Turning to `O=C(O)c1ccccc1N=Nc1ccc(O)cc1` [HABA], the Kd is 11 µM.
